Series [1] has as its system bronchospasms induced by acetylcholine. Description: Bronchospasmolytic activity (method of Konzett et al.), acetylcholine-induced bronchospasm. It is filed as in vivo. The conditions noted are these: anesthetized guinea pigs; for ED50: Cavia porcellus, dose which produces a 50% reduction of the bronchospasm, acetylcholine 20 mgm/kg i.v. On the procedure:
The compounds were tested on adult guinea pigs of both sexes by the standard pharmacological test method of Konzett et al., Naunyn-Schmiedeberg's Arch. Exp. Path. Pharmakol. 195, 71-74 (1940). The test animals were anesthetized with 1.5 gm/kg urethane i.p. The bronchospasms were induced by injection of 20 mgm/kg of acetylcholine i.v. The test compound was administered intravenously or intraduodenally. From the average values of maximum decrease in bronchoconstriction obtained at various dosage levels, an ED50 i.e. the dose which produces a 50% reduction of the bronchospasm, with confidence limits according to Fieller, Quart. J. Pharm. Phamacol. 17, 117-123 (1944), was calculated by linear regression analysis according to Linder, Statistische Methoden, 4th Ed., 148-162, published by Birkhauser, Basel, Switzerland (1964).

Series [2] in a line: Acute toxicity, intravenous, LD50. The conditions noted are these: mouse, in vivo, i.v., mice, animals which died within 14 days. As to the method:
The intravenous toxicity was determined on laboratory mice of both sexes having an average body weight of 20 gm. From the number of animals which died within 14 days at various dosage levels, the median lethal dose (LD50) was calculated by the method of Litchfield and Wilcoxon, supra.

The subject of series [3] is asthma attack induced by acetylcholine aerosol. Description: Antiasthmatic activity (method of Kallos et al.), acetylcholine aerosol. The format is in vivo, guinea pigs. As to the method:
The standard test method of Kallos et al., Acta med. scand. 91, 292 (1937) was used. The test compound was orally administered to adult guinea pigs which were then exposed to an acetylcholine aerosol steam produced with an aerosol nozzle at 1.5 atmospheres gauge from a 0.4% solution of acetylcholine in an aqueous 0.9% sodium chloride solution. A more than three-fold prolongation of the time until onset of the asthma attack in comparision to untreated controls was evaluated as absolute protection. From the number of animals which were protected at various dosages, an ED50, i.e. the dose which gives absolute protection in 50% of the animals, was calculated by the method of Litchfield and Wilcoxon, J. Pahrmacol. Exper. Ther. 96, 99 (1949).

Setting [4] is: iv, read-out: ED50 after i.v. administration.
The mark [5] stands for this setting: i.d. (intraduodenal), read-out: ED50 after i.d. administration.

Read-outs that look alike come from different tables or passages of the source.

In the case of `CCOC(=O)Nc1c(F)cc(C(O)CNC(C)(C)C)cc1Cl.Cl` (stereo not drawn) [A, 1-(4'-ethoxycarbonylamino-3'-chloro-5'-fluoro-phenyl)-2-tert.-butylamino-ethanol hydrochloride], the figures for the ED50 in series [1] (setting [4]) and in series [1] (setting [5]) were 0.0307 mg/kg and 0.0323 mg/kg, respectively. The “t/2 after i.v. administration” value in series [1] is listed as 60 min. In addition, the median lethal dose (LD50) at 336 h in series [2] is 70.2 mg/kg.
In the case of `CCOC(=O)Nc1c(F)cc(C(O)CNC(C)(C)C)cc1C#N.Cl` (stereo not drawn) [B, 1-(4'-ethoxycarbonylamino-3'-cyano-5'-fluoro-phenyl)-2-tert.-butylamino-ethanol hydrochloride], the ED50 in series [1] (setting [4]) was 0.0056 mg/kg; in series [1] (setting [5]), 0.007 mg/kg; in series [3] (Cavia porcellus, po, dose which gives absolute protection in 50% of the animals (more than three-fold prolongation of time until onset of asthma attack), acetylcholine aerosol 0.4%), 0.0143 mg/kg. For the same compound, the “t/2 after i.v. administration” value in series [1] is reported as 70 min. The same compound yielded an LD50 at 336 h in series [2] of 97.5 mg/kg. The compound further registered a t/2 in series [3] (p.o., guinea pigs) of 150 min. Also, the “Max. effect after min.” value in series [3] (p.o., guinea pigs, time of maximum effect) was 15 to 30 min.
On to `CCOC(=O)Nc1ccc(C(O)CNC(C)(C)C)cc1C#N.Cl` (stereo not drawn) [C, 1-(4'-ethoxycarbonylamino-3'-cyano-phenyl)-2-tert. butylamino-ethanol hydrochloride], for which the ED50 in series [1] (setting [4]) was found to be 0.0235 mg/kg; in series [1] (setting [5]), 0.0087 mg/kg. The “t/2 after i.v. administration” value in series [1] was over 50 min. This compound also yielded an LD50 at 336 h in series [2] of 67.2 mg/kg.
As to `CCOC(=O)Nc1ccc(C(O)CNC(C)C)cc1C#N.Cl` (stereo not drawn) [D, 1-(4'-ethoxycarbonylamino-3'-cyano-phenyl)-2-isopropylamino-ethanol hydrochloride], the ED50 in series [1] (setting [4]) worked out at 0.064 mg/kg. The “t/2 after i.v. administration” value in series [1] is on record as over 50 min. The compound also yielded a median lethal dose (LD50) at 336 h in series [2] of 61.9 mg/kg.

One may read the LD50 as the dose expected to kill half of the subjects tested. Read a low LD50 as a more toxic substance.

(Values after patent US4214001A, “1-(4-Acylamino-phenyl)-2-amino-ethanols and salts thereof” (Boehringer Ingelheim GmbH, priority 1977, dated 1980).)
